Experimental data published in patent publication US20230085307A1, “PYRIDAZINONE COMPOUND AND HERBICIDE” (NISSAN CHEMICAL CORPORATION, priority 2019, published 2023).

Columns and labels:
Japanese bulrush = assay: Test Example 1: herbicidal activity, application before weed generation under submerged conditions (Table 16, symbol B); assay type: in vivo, Japanese bulrush (Schoenoplectus juncoides); details: amount of applied herbicide 320 g/ha
In short: (§1)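 Submerged Wagner pots (alluvial soil, 4 cm water) sown with weed seeds and planted with 2.5-leaf rice seedlings; emulsifiable concentrate diluted in water applied to water surface on sowing day. Held in greenhouse at 25-30 °C; injury scored 0-5 by herbicidal rate after three weeks.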

rice flat sedge = assay: Test Example 3: herbicidal effect by foliage application, Wagner pot (Table 18, symbol E); assay type: in vivo, rice flat sedge (Cyperus iria); details: amount of applied herbicide 320 g/ha
In short: (§2)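 Plants were sown in alluvial soil held under 0.1–0.5 cm standing water and grown 14 days in a greenhouse at 25–30 °C. An emulsifiable formulation, water-diluted to the set dose, was then sprayed onto the foliage, and effects were scored three weeks later using previously defined criteria.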

barnyard grass [1] = assay: Test Example 4: herbicidal effect by soil treatment (Table 19, symbol H); assay type: in vivo, barnyard grass (Echinochloa crus-galli); details: amount of applied herbicide 320 g/ha
In short: (§3)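 Seeds were sown in sterilized diluvial soil and covered with about 1.5 cm of soil. An emulsion formulation diluted with water to a predetermined herbicide amount was sprayed evenly onto the soil surface. Plants grew in a greenhouse at 25° C. to 30° C., and the effect was scored three weeks after application using criteria from an earlier test.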

chickweed [2] = assay: Test Example 5: herbicidal effect by foliage application, plastic box (Table 20, symbol P); assay type: in vivo, common chickweed (Stellaria media); details: foliage application, AAH 320 g/ha, evaluated three weeks after application
In short: (§4)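 Plants sown in sterilized diluvial soil and grown 14 days in a greenhouse at 25° C to 30° C, then sprayed on the foliage with the compound's emulsion diluted in water to a predetermined herbicide amount. Injury to weeds and crops scored three weeks after application on a visual rating scale.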

oval-leafed pondweed = assay: Test Example 1: herbicidal activity, application before weed generation under submerged conditions (Table 16, symbol C); assay type: in vivo, oval-leafed pondweed (Monochoria vaginalis); details: amount of applied herbicide 320 g/ha
In short: as §1

persian speedwell [3] = assay: Test Example 5: herbicidal effect by foliage application, plastic box (Table 20, symbol R); assay type: in vivo, Persian speedwell (Veronica persica); details: foliage application, AAH 320 g/ha, evaluated three weeks after application
In short: as §4

blackgrass [4] = assay: Test Example 4: herbicidal effect by soil treatment (Table 19, symbol J); assay type: in vivo, blackgrass (Alopecurus myosuroides); details: amount of applied herbicide 320 g/ha
In short: as §3

redroot pigweed [5] = assay: Test Example 4: herbicidal effect by soil treatment (Table 19, symbol N); assay type: in vivo, redroot pigweed (Amaranthus retroflexus); details: amount of applied herbicide 320 g/ha
In short: as §3

lambsquarters [6] = assay: Test Example 5: herbicidal effect by foliage application, plastic box (Table 20, symbol O); assay type: in vivo, lambsquarters (Chenopodium album); details: foliage application, AAH 320 g/ha, evaluated three weeks after application
In short: as §4

wild oat [7] = assay: Test Example 4: herbicidal effect by soil treatment (Table 19, symbol I); assay type: in vivo, wild oat (Avena fatua); details: amount of applied herbicide 320 g/ha
In short: as §3

green foxtail [8] = assay: Test Example 5: herbicidal effect by foliage application, plastic box (Table 20, symbol G); assay type: in vivo, green foxtail (Setaria viridis); details: foliage application, AAH 320 g/ha, evaluated three weeks after application
In short: as §4

barnyard grass [9] = assay: Test Example 5: herbicidal effect by foliage application, plastic box (Table 20, symbol H); assay type: in vivo, barnyard grass (Echinochloa crus-galli); details: foliage application, AAH 320 g/ha, evaluated three weeks after application
In short: as §4

barnyard grass [10] = assay: Test Example 3: herbicidal effect by foliage application, Wagner pot (Table 18, symbol H); assay type: in vivo, barnyard grass (Echinochloa crus-galli); details: amount of applied herbicide 320 g/ha
In short: as §2

Chinese sprangletop = assay: Test Example 3: herbicidal effect by foliage application, Wagner pot (Table 18, symbol D); assay type: in vivo, chinese sprangletop (Leptochloa chinensis); details: amount of applied herbicide 320 g/ha
In short: as §2

southern crabgrass [11] = assay: Test Example 4: herbicidal effect by soil treatment (Table 19, symbol F); assay type: in vivo, southern crabgrass (Digitaria ciliaris); details: amount of applied herbicide 320 g/ha
In short: as §3

lambsquarters [12] = assay: Test Example 4: herbicidal effect by soil treatment (Table 19, symbol O); assay type: in vivo, lambsquarters (Chenopodium album); details: amount of applied herbicide 320 g/ha
In short: as §3

southern crabgrass [13] = assay: Test Example 5: herbicidal effect by foliage application, plastic box (Table 20, symbol F); assay type: in vivo, southern crabgrass (Digitaria ciliaris); details: foliage application, AAH 320 g/ha, evaluated three weeks after application
In short: as §4

blackgrass [14] = assay: Test Example 5: herbicidal effect by foliage application, plastic box (Table 20, symbol J); assay type: in vivo, blackgrass (Alopecurus myosuroides); details: foliage application, AAH 320 g/ha, evaluated three weeks after application
In short: as §4

chickweed [15] = assay: Test Example 4: herbicidal effect by soil treatment (Table 19, symbol P); assay type: in vivo, common chickweed (Stellaria media); details: amount of applied herbicide 320 g/ha
In short: as §3

green foxtail [16] = assay: Test Example 4: herbicidal effect by soil treatment (Table 19, symbol G); assay type: in vivo, green foxtail (Setaria viridis); details: amount of applied herbicide 320 g/ha
In short: as §3

Italian ryegrass [17] = assay: Test Example 4: herbicidal effect by soil treatment (Table 19, symbol K); assay type: in vivo, Italian ryegrass (Lolium multiflorum); details: amount of applied herbicide 320 g/ha
In short: as §3

persian speedwell [18] = assay: Test Example 4: herbicidal effect by soil treatment (Table 19, symbol R); assay type: in vivo, Persian speedwell (Veronica persica); details: amount of applied herbicide 320 g/ha
In short: as §3

late watergrass = assay: Test Example 1: herbicidal activity, application before weed generation under submerged conditions (Table 16, symbol A); assay type: in vivo, late watergrass (Echinochloa oryzicola); details: amount of applied herbicide 320 g/ha
In short: as §1

velvetleaf [19] = assay: Test Example 5: herbicidal effect by foliage application, plastic box (Table 20, symbol M); assay type: in vivo, velvetleaf (Abutilon theophrasti); details: foliage application, AAH 320 g/ha, evaluated three weeks after application
In short: as §4

windgrass [20] = assay: Test Example 5: herbicidal effect by foliage application, plastic box (Table 20, symbol L); assay type: in vivo, windgrass (Apera spica-venti); details: foliage application, AAH 320 g/ha, evaluated three weeks after application
In short: as §4

redroot pigweed [21] = assay: Test Example 5: herbicidal effect by foliage application, plastic box (Table 20, symbol N); assay type: in vivo, redroot pigweed (Amaranthus retroflexus); details: foliage application, AAH 320 g/ha, evaluated three weeks after application
In short: as §4

Italian ryegrass [22] = assay: Test Example 5: herbicidal effect by foliage application, plastic box (Table 20, symbol K); assay type: in vivo, Italian ryegrass (Lolium multiflorum); details: foliage application, AAH 320 g/ha, evaluated three weeks after application
In short: as §4

wild oat [23] = assay: Test Example 5: herbicidal effect by foliage application, plastic box (Table 20, symbol I); assay type: in vivo, wild oat (Avena fatua); details: foliage application, AAH 320 g/ha, evaluated three weeks after application
In short: as §4

velvetleaf [24] = assay: Test Example 4: herbicidal effect by soil treatment (Table 19, symbol M); assay type: in vivo, velvetleaf (Abutilon theophrasti); details: amount of applied herbicide 320 g/ha
In short: as §3

windgrass [25] = assay: Test Example 4: herbicidal effect by soil treatment (Table 19, symbol L); assay type: in vivo, windgrass (Apera spica-venti); details: amount of applied herbicide 320 g/ha
In short: as §3

SMILES	Herbicidal effect, B: Japanese bulrush (Japanese bulrush)	herbicidal effect on E: rice flat sedge (rice flat sedge)	herbicidal effect, H: barnyard grass (barnyard grass [1])	P: chickweed, herbicidal effect (criteria 0-5) (chickweed [2])	Herbicidal effect, C: oval-leafed pondweed (oval-leafed pondweed)	R: persian speedwell, herbicidal effect (criteria 0-5) (persian speedwell [3])	herbicidal effect, J: blackgrass (blackgrass [4])	herbicidal effect, N: redroot pigweed (redroot pigweed [5])	O: lambsquarters, herbicidal effect (criteria 0-5) (lambsquarters [6])	herbicidal effect, I: wild oat (wild oat [7])	G: green foxtail, herbicidal effect (criteria 0-5) (green foxtail [8])	H: barnyard grass, herbicidal effect (criteria 0-5) (barnyard grass [9])	herbicidal effect on H: barnyard grass (barnyard grass [10])	herbicidal effect on D: Chinese sprangletop (Chinese sprangletop)	herbicidal effect, F: southern crabgrass (southern crabgrass [11])	herbicidal effect, O: lambsquarters (lambsquarters [12])	F: southern crabgrass, herbicidal effect (criteria 0-5) (southern crabgrass [13])	J: blackgrass, herbicidal effect (criteria 0-5) (blackgrass [14])	herbicidal effect, P: chickweed (chickweed [15])	herbicidal effect, G: green foxtail (green foxtail [16])	further results
CSc1ccncc1-c1sc2ccc(F)cc2c1-c1c(O)c(C)nn(C)c1=O [2-389]	0 (Herbicidal rate of 5% or less (almost no effect))	5 (Herbicidal rate of 90% or more (almost completely withered))	3 (Herbicidal rate of 40% or more and less than 70%)	5 (Herbicidal rate of 90% or more (almost completely withered))	0 (Herbicidal rate of 5% or less (almost no effect))	5 (Herbicidal rate of 90% or more (almost completely withered))	0 (Herbicidal rate of 5% or less (almost no effect))	5 (Herbicidal rate of 90% or more (almost completely withered))	5 (Herbicidal rate of 90% or more (almost completely withered))	1 (Herbicidal rate of 5% or more and less than 20%)	5 (Herbicidal rate of 90% or more (almost completely withered))	5 (Herbicidal rate of 90% or more (almost completely withered))	5 (Herbicidal rate of 90% or more (almost completely withered))	3 (Herbicidal rate of 40% or more and less than 70%)	1 (Herbicidal rate of 5% or more and less than 20%)	5 (Herbicidal rate of 90% or more (almost completely withered))	5 (Herbicidal rate of 90% or more (almost completely withered))	3 (Herbicidal rate of 40% or more and less than 70%)	4 (Herbicidal rate of 70% or more and less than 90%)	3 (Herbicidal rate of 40% or more and less than 70%)	herbicidal effect, K: Italian ryegrass (Italian ryegrass [17]): 3 (Herbicidal rate of 40% or more and less than 70%); herbicidal effect, R: persian speedwell (persian speedwell [18]): 5 (Herbicidal rate of 90% or more (almost completely withered)); Herbicidal effect, A: late watergrass (late watergrass): 3 (Herbicidal rate of 40% or more and less than 70%); M: velvetleaf, herbicidal effect (criteria 0-5) (velvetleaf [19]): 5 (Herbicidal rate of 90% or more (almost completely withered)); L: windgrass, herbicidal effect (criteria 0-5) (windgrass [20]): 4 (Herbicidal rate of 70% or more and less than 90%); N: redroot pigweed, herbicidal effect (criteria 0-5) (redroot pigweed [21]): 5 (Herbicidal rate of 90% or more (almost completely withered)); K: Italian ryegrass, herbicidal effect (criteria 0-5) (Italian ryegrass [22]): 4 (Herbicidal rate of 70% or more and less than 90%); I: wild oat, herbicidal effect (criteria 0-5) (wild oat [23]): 4 (Herbicidal rate of 70% or more and less than 90%); herbicidal effect, M: velvetleaf (velvetleaf [24]): 3 (Herbicidal rate of 40% or more and less than 70%); herbicidal effect, L: windgrass (windgrass [25]): 1 (Herbicidal rate of 5% or more and less than 20%)
Cc1nn(C)c(=O)c(-c2c(-c3ccc(Cl)s3)sc3ccc(F)cc23)c1O [2-390]	0 (Herbicidal rate of 5% or less (almost no effect))	5 (Herbicidal rate of 90% or more (almost completely withered))	5 (Herbicidal rate of 90% or more (almost completely withered))	5 (Herbicidal rate of 90% or more (almost completely withered))	0 (Herbicidal rate of 5% or less (almost no effect))	5 (Herbicidal rate of 90% or more (almost completely withered))	5 (Herbicidal rate of 90% or more (almost completely withered))	5 (Herbicidal rate of 90% or more (almost completely withered))	5 (Herbicidal rate of 90% or more (almost completely withered))	1 (Herbicidal rate of 5% or more and less than 20%)	5 (Herbicidal rate of 90% or more (almost completely withered))	4 (Herbicidal rate of 70% or more and less than 90%)	5 (Herbicidal rate of 90% or more (almost completely withered))	3 (Herbicidal rate of 40% or more and less than 70%)	4 (Herbicidal rate of 70% or more and less than 90%)	4 (Herbicidal rate of 70% or more and less than 90%)	5 (Herbicidal rate of 90% or more (almost completely withered))	4 (Herbicidal rate of 70% or more and less than 90%)	4 (Herbicidal rate of 70% or more and less than 90%)	5 (Herbicidal rate of 90% or more (almost completely withered))	herbicidal effect, K: Italian ryegrass (Italian ryegrass [17]): 5 (Herbicidal rate of 90% or more (almost completely withered)); herbicidal effect, R: persian speedwell (persian speedwell [18]): 5 (Herbicidal rate of 90% or more (almost completely withered)); Herbicidal effect, A: late watergrass (late watergrass): 2 (Herbicidal rate of 20% or more and less than 40%); M: velvetleaf, herbicidal effect (criteria 0-5) (velvetleaf [19]): 5 (Herbicidal rate of 90% or more (almost completely withered)); L: windgrass, herbicidal effect (criteria 0-5) (windgrass [20]): 5 (Herbicidal rate of 90% or more (almost completely withered)); N: redroot pigweed, herbicidal effect (criteria 0-5) (redroot pigweed [21]): 5 (Herbicidal rate of 90% or more (almost completely withered)); K: Italian ryegrass, herbicidal effect (criteria 0-5) (Italian ryegrass [22]): 5 (Herbicidal rate of 90% or more (almost completely withered)); I: wild oat, herbicidal effect (criteria 0-5) (wild oat [23]): 4 (Herbicidal rate of 70% or more and less than 90%); herbicidal effect, M: velvetleaf (velvetleaf [24]): 3 (Herbicidal rate of 40% or more and less than 70%); herbicidal effect, L: windgrass (windgrass [25]): 4 (Herbicidal rate of 70% or more and less than 90%)
